# In patent US6642004B2, “Method for measuring nucleotides” (FMC Corporation, priority 2000, dated 2003):
# Read-outs that look alike come from different tables or passages of the source.
# What was measured:
# Sf9 cells = experiment: quantification of cAMP generated in Sf9 cells after compound treatment ([3H]cAMP competition for bovine adrenal binding protein, single vessel); type: cell-based
# Protocol: On the day of the experiment, four-day sold Sf9 cells for use in the first step, with cell density at about 5,000,000 to about 6,000,000 cells, were spun in a Biofuge 15 centrifuge (available from Heneaus Instruments, Germany at 1310 rpm (500 g) for five minutes. After this time, the supernatant was discarded and sufficient Sf9 serum free medium (Sf900 II SFM) was added to the resulting cell pellet give a final concentration of 2,000,000 cells /ml. To these cells was added 0.02 ml of Solution J. Upon completion of addition, the resulting solution was gently mixed and then incubated at ambient temperature for 40 minutes, for use, below .
# This method was performed in the manner disclosed in Example 1 except that synephrine was used rather than amitraz, and the concentrations of the synephrine dilutions were in the range of 0.00369 mM to 1.0 mM rather than 0.00123 mM to 0.3 mM.
# This method was performed in the manner disclosed in Example 1 except that DL-octopamine was used rather than amitraz, and the concentrations of the DL-octopamine dilutions were in the range of about 0.0123 mM to about 3.0 mM rather than about 0.00123 mM to about 0.3 mM.
# This method was performed in the manner disclosed in Example 1 except that DCDM was used rather than amitraz, and the concentrations of the DCDM dilutions were in the range of 0.000123 mM to about 0.03 mM rather than 0.00123 mM to about 0.3 mM.
# [1] = system: protein derived from a bovine adrenal gland
# Protocol: Thereafter, 50 μl of the above-prepared Sf9 cell solution was added to all of the wells. The microplates were incubated at ambient temperature for 45 minutes. After this time, the Sf9 cells were lysed by adding 50 μl of Solution H. The microplates were incubated a second time at ambient temperature for 15 to 20 minutes. After this time, 25 μl of Solution R followed by 25 μl of Solution Q were added to the microplates. The microplates were incubated for a third time at ambient temperature with shaking at 125 rpm for 90 minutes. The resulting mixtures were filtered under reduced pressure through glass fiber filtermats, which were soaked in 500 ml of Solution G for about 30 minutes prior to use. The filtermats were washed for ten seconds with ice-cold Solution F and then, dried at 60° C. for 45 to 60 minutes in a Stabil-Therm® oven (available from Blue M Electric Co., Blue Island, Ill.). After this time, the amount of the radiolabeled 3′,5′-monophosphate/binding protein complex bound to the filtermats was determined by the aforesaid quantification method.
# [2] = 0.000111 mM in the synephrine series
compound,measurement,setting,value
NCC(O)c1ccc(O)cc1 (racemic) [DL-octopamine],Specific Counts (dpm),Sf9 cells; 0.00041 mM,5942.2 dpm
same,Total Counts (dpm) Determined,Sf9 cells; 0.00041 mM,6899 dpm
same,inhibition at 0.41 µM,Sf9 cells; 0.00041 mM,6.9%
same,Specific Counts (dpm),Sf9 cells; 0.00123 mM,5639.1 dpm
same,Total Counts (dpm) Determined,Sf9 cells; 0.00123 mM,6595.9 dpm
same,inhibition at 1.23 µM,Sf9 cells; 0.00123 mM,11.7%
same,Specific Counts (dpm),Sf9 cells; 0.0037 mM,4952.4 dpm
same,Total Counts (dpm) Determined,Sf9 cells; 0.0037 mM,5909.2 dpm
same,inhibition at 3.7 µM,Sf9 cells; 0.0037 mM,22.4%
same,Specific Counts (dpm),Sf9 cells; 0.0111 mM,3295.5 dpm
same,Total Counts (dpm) Determined,Sf9 cells; 0.0111 mM,4252.3 dpm
same,inhibition at 11.1 µM,Sf9 cells; 0.0111 mM,48.4%
same,Specific Counts (dpm),Sf9 cells; 0.0333 mM,1934.3 dpm
same,Total Counts (dpm) Determined,Sf9 cells; 0.0333 mM,2891.1 dpm
same,inhibition at 33.3 µM,Sf9 cells; 0.0333 mM,69.7%
same,Specific Counts (dpm),Sf9 cells; 0.1 mM,1267.9 dpm
same,Total Counts (dpm) Determined,Sf9 cells; 0.1 mM,2224.7 dpm
same,inhibition at 100 µM,Sf9 cells; 0.1 mM,80.1%
"Cc1ccc(/N=C/N(C)/C=N/c2ccc(C)cc2C)c(C)c1 [Amitraz, amitraz]",Specific Counts (dpm),Sf9 cells; 0.000041 mM,6020.4 dpm
same,Total Counts (dpm) Determined,Sf9 cells; 0.000041 mM,6899.4 dpm
same,inhibition at 0.041 µM,Sf9 cells; 0.000041 mM,2.5%
same,Specific Counts (dpm),Sf9 cells; 0.000123 mM,5130.2 dpm
same,Total Counts (dpm) Determined,Sf9 cells; 0.000123 mM,6009.2 dpm
same,inhibition at 0.123 µM,Sf9 cells; 0.000123 mM,16.9%
same,Specific Counts (dpm),Sf9 cells; 0.00037 mM,3939.2 dpm
same,Total Counts (dpm) Determined,Sf9 cells; 0.00037 mM,4818.2 dpm
same,inhibition at 0.37 µM,Sf9 cells; 0.00037 mM,36.2%
same,Specific Counts (dpm),Sf9 cells; 0.00111 mM,2562.5 dpm
same,Total Counts (dpm) Determined,Sf9 cells; 0.00111 mM,3441.5 dpm
same,inhibition at 1.11 µM,Sf9 cells; 0.00111 mM,58.5%
same,Specific Counts (dpm),Sf9 cells; 0.00333 mM,1428.2 dpm
same,Total Counts (dpm) Determined,Sf9 cells; 0.00333 mM,2307.2 dpm
same,inhibition at 3.33 µM,Sf9 cells; 0.00333 mM,76.9%
same,Specific Counts (dpm),Sf9 cells; 0.01 mM,1049.5 dpm
same,Total Counts (dpm) Determined,Sf9 cells; 0.01 mM,1928.5 dpm
same,inhibition at 10 µM,Sf9 cells; 0.01 mM,83%
"CN=CNc1ccc(Cl)cc1C [DCDM, demethylchlordimeform]",% Inhibition,Sf9 cells; 0.0000041 mM,11.7%
same,Specific Counts (dpm),Sf9 cells; 0.0000041 mM,5687.8 dpm
same,Total Counts (dpm) Determined,Sf9 cells; 0.0000041 mM,6512.1 dpm
same,% Inhibition,Sf9 cells; 0.0000123 mM,23.1%
same,Specific Counts (dpm),Sf9 cells; 0.0000123 mM,4954.7 dpm
same,Total Counts (dpm) Determined,Sf9 cells; 0.0000123 mM,5779.0 dpm
same,% Inhibition,Sf9 cells; 0.000037 mM,38%
same,Specific Counts (dpm),Sf9 cells; 0.000037 mM,3993.7 dpm
same,Total Counts (dpm) Determined,Sf9 cells; 0.000037 mM,4818 dpm
same,% Inhibition,Sf9 cells; 0.000111 mM,58.3%
same,Specific Counts (dpm),Sf9 cells; 0.000111 mM,2689.4 dpm
same,Total Counts (dpm) Determined,Sf9 cells; 0.000111 mM,3513.7 dpm
same,% Inhibition,Sf9 cells; 0.000333 mM,77.1%
same,Specific Counts (dpm),Sf9 cells; 0.000333 mM,1472.8 dpm
same,Total Counts (dpm) Determined,Sf9 cells; 0.000333 mM,2297.1 dpm
same,% Inhibition,Sf9 cells; 0.001 mM,84.1%
same,Specific Counts (dpm),Sf9 cells; 0.001 mM,1026.2 dpm
same,Total Counts (dpm) Determined,Sf9 cells; 0.001 mM,1850.5 dpm
"CNCC(O)c1ccc(O)cc1 (centres unmarked) [Synephrine, synephrine]",Specific Counts (dpm),Sf9 cells; [2],4516.2 dpm
same,Total Counts (dpm) Determined,Sf9 cells; [2],5487 dpm
same,Specific Counts (dpm),Sf9 cells; 0.000123 mM,6081.7 dpm
same,Total Counts (dpm) Determined,Sf9 cells; 0.000123 mM,7052.5 dpm
same,inhibition at 0.123 µM,Sf9 cells; 0.000123 mM,3.1%
same,Specific Counts (dpm),Sf9 cells; 0.00037 mM,5260 dpm
same,Total Counts (dpm) Determined,Sf9 cells; 0.00037 mM,6230.8 dpm
same,inhibition at 0.37 µM,Sf9 cells; 0.00037 mM,16.2%
same,Specific Counts (dpm),Sf9 cells; 0.00333 mM,2732.7 dpm
same,Total Counts (dpm) Determined,Sf9 cells; 0.00333 mM,3703.5 dpm
same,inhibition at 3.33 µM,Sf9 cells; 0.00333 mM,56.4%
same,Specific Counts (dpm),Sf9 cells; 0.011 mM,1605.1 dpm
same,Total Counts (dpm) Determined,Sf9 cells; 0.011 mM,2575.9 dpm
same,inhibition at 11 µM,Sf9 cells; 0.011 mM,74.4%
same,Specific Counts (dpm),Sf9 cells; 0.033 mM,1074.6 dpm
same,Total Counts (dpm) Determined,Sf9 cells; 0.033 mM,2045.4 dpm
same,inhibition at 33 µM,Sf9 cells; 0.033 mM,82.9%
"Nc1ncnc2c1ncn2[C@@H]1O[C@@H]2COP(=O)(O)O[C@H]2[C@H]1O [cAMP Standard, cyclic adenosine 3′,5′-monophosphate]",% Inhibition,[1]; 0.0000026 mM,20.3%
same,Specific Counts (dpm),[1]; 0.0000026 mM,5398.5 dpm
same,Total Counts (dpm) Determined,[1]; 0.0000026 mM,5791 dpm
same,% Inhibition,[1]; 0.0000078 mM,37.5%
same,Specific Counts (dpm),[1]; 0.0000078 mM,4234.8 dpm
same,Total Counts (dpm) Determined,[1]; 0.0000078 mM,4627.3 dpm
same,% Inhibition,[1]; 0.000023 mM,61.7%
same,Specific Counts (dpm),[1]; 0.000023 mM,2595.8 dpm
same,Total Counts (dpm) Determined,[1]; 0.000023 mM,2988.3 dpm
same,% Inhibition,[1]; 0.00007 mM,78.8%
same,Specific Counts (dpm),[1]; 0.00007 mM,1435.8 dpm
same,Total Counts (dpm) Determined,[1]; 0.00007 mM,1828.3 dpm
same,% Inhibition,[1]; 0.00021 mM,90.4%
same,Specific Counts (dpm),[1]; 0.00021 mM,648.8 dpm
same,Total Counts (dpm) Determined,[1]; 0.00021 mM,1041.3 dpm
same,% Inhibition,[1]; 0.00064 mM,95.5%
same,Specific Counts (dpm),[1]; 0.00064 mM,307.6 dpm
same,Total Counts (dpm) Determined,[1]; 0.00064 mM,700.3 dpm
